Measured values from article PMC9697873, “Construction and Evaluation of a Novel Organic Anion Transporter 1/3 CRISPR/Cas9 Double-Knockout Rat Model” (Pharmaceutics, 2022).
Where a name gives a salt, the structure may show the parent alone. Read-outs that look alike come from different tables or passages of the source.

Tests used:
[1] = UTs concentration and renal uptake ratio detection in WT and KO rats; assay type: in vivo, rat; conditions: for plasma concentration of endogenous UT, KO compared with WT rats / renal uptake ratio of endogenous UT, KO compared with WT rats: 4W and/or 7W rats, n = 7; for urine concentration of endogenous UT, KO compared with WT rats: 12-h urine, 4W and 7W rats
Experimental: We collected blood, 12-h urine and kidney tissue samples of 4W and 7W WT and KO rats. The concentrations of UTs were measured by the liquid chromatography-tandem mass spectrometry (LC-MS/MS), which consisted of an Agilent 1260 liquid chromatography and a 6460 triple-quadrupole mass spectrometer operated in the electrospray ionization mode (Agilent Technologies, Santa Clara, CA, USA). Chromatographic separations were performed on an Agilent ZORBAX RR StableBond C18 analytical guard column (4.6 mm × 100 mm, 3.5 µm, Agilent Technologies, Santa Clara, CA, USA) at 30 °C. The MS parameters are shown in Supporting Information Table S1. […] The internal standard used in the positive ion mode was d3-creatinine, and in the negative ion mode was d5-hippuric acid.

[2] = furosemide ref 19; PAH ref 17, 52; cited from earlier work
[3] = Urinary excretion after intravenous drug cocktail in WT and KO rats; assay type: in vivo, rat; conditions: KO vs WT rats, i.v. cocktail, urine to 12 h
Experimental: The blood samples were centrifuged at 8000× g for 10 min and the supernatant was stored at −80 °C for detection.

[4] = Slc22a6/Slc22a8-/- rats, i.v. cocktail, mean ± S.D., n = 5
[5] = WT rats, i.v. cocktail, mean ± S.D., n = 5

Row | Molecule | plasma concentration of endogenous UT, KO compared with WT rats [1] | renal uptake ratio of endogenous UT, KO compared with WT rats [1] | further results
1 | Cn1cnc2c(ncn2[C@@H]2O[C@H](CO)[C@@H](O)[C@H]2O)c1=O [1-methyl-inosine] | significantly increased | obviously decreased | urine concentration of endogenous UT, KO compared with WT rats [1]: clearly decreased
2 | OC[C@H]1O[C@@H](Oc2c[nH]c3ccccc23)[C@H](O)[C@@H](O)[C@@H]1O [3-indolyl-β-D-glucopyranoside] | significantly increased | obviously decreased | –
3 | O=S(=O)([O-])Oc1c[nH]c2ccccc12.[K+] [3-indoxyl sulfate potassium salt] | significantly increased | obviously decreased | –
4 | CCc1ccc(OS(=O)(=O)[O-])cc1.[K+] [4-ethylphenyl sulfate] | significantly increased | obviously decreased | urine concentration of endogenous UT, KO compared with WT rats [1]: increased
5 | Nc1ccccc1C(=O)C[C@@H](N)C(=O)O [D-kynurenine] | significantly increased | obviously decreased | –
6 | CN(C)c1nc2c(ncn2[C@@H]2O[C@H](CO)[C@@H](O)[C@H]2O)c(=O)[nH]1 [N2,N2-dimethylguanosine] | – | – | urine concentration of endogenous UT, KO compared with WT rats [1]: clearly decreased
7 | N[C@@H](CCCCNCC(=O)O)C(=O)O [N6-(carboxymethyl)-l-lysine] | significantly increased | obviously decreased | –
8 | O=C(O)CNC(=O)C=Cc1ccccc1 [N-(cinnamoyl)glycine] | significantly lower | much higher | –
9 | CC(=O)N[C@@H](CCCN=C(N)N)C(=O)O [N-acetyl-L-arginine] | significantly increased | obviously decreased | –
10 | CC(=O)Nc1ccn([C@@H]2O[C@H](CO)[C@@H](O)[C@H]2O)c(=O)n1 [N-acetylcytidine] | significantly increased | obviously decreased | –
11 | Nc1ccc(C(=O)NCC(=O)O)cc1 [PAH, p-aminohippuric acid] | – | – | plasma protein binding rate [2]: low
12 | CN1CC(=O)NC1=N [creatinine] | not significantly increased | – | –
13 | O=C(O)CNC(=O)c1ccccc1 [hippuric acid] | significantly increased | obviously decreased | –
14 | O=C(O)c1cc(=O)[nH]c(=O)[nH]1 [orotic acid] | significantly increased | obviously decreased | –
15 | Cc1ccc(O[C@@H]2O[C@H](C(=O)O)[C@@H](O)[C@H](O)[C@H]2O)cc1 [p-cresol glucuronide] | significantly lower | much higher | –
16 | Cc1ccc(OS(=O)(=O)O)cc1 [p-cresol sulfate] | significantly increased | obviously decreased | –
17 | O=C(O)[C@H]1O[C@@H](Oc2ccccc2)[C@H](O)[C@@H](O)[C@@H]1O [phenyl-β-D-glucuronide] | significantly lower | much higher | –
18 | O=c1[nH]c(=O)c2[nH]c(=O)[nH]c2[nH]1 [uric acid] | significantly increased | obviously decreased | –
19 | inulin | – | – | urinary excretion / urine concentration, KO compared with WT rats [3]: significantly decreased; plasma concentration, KO compared with WT rats (KO vs WT rats, i.v. cocktail): much higher; AUC(0–12) (Slc22a6/Slc22a8-/- rats, i.v. cocktail (PAH 5 mg/kg, metformin 5 mg/kg, inulin 100 mg/kg), mean ± S.D., n = 5): 14,208.11 ± 1433.67 ng/mL·min; AUC(0–∞) [4]: 16,434.89 ± 1696.15 ng/mL·min; CL/F [4]: 6137.27 ± 639.31; Cmax [4]: 376.40 ± 36.13 ng/mL; MRT(0–12) [4]: 35.34 ± 4.08 min; MRT(0–∞) [4]: 37.99 ± 4.20 min; V1/F [4]: 185,957.58 ± 15,232.62 L/kg; t1/2α [4]: 5.23 ± 2.51 min; CL/F [5]: 7427.26 ± 724.03; Cmax [5]: 324.47 ± 33.41 ng/mL; MRT(0–12) [5]: 28.71 ± 5.54 min; MRT(0–∞) [5]: 34.03 ± 8.70 min; V1/F [5]: 241,341.96 ± 36672.44 L/kg; t1/2α [5]: 14.75 ± 4.72 min
